Values after ≈ are worked out from the molar mass of the structure shown. Non-standard residues stand in square brackets, D forms with d. Residues, ends and D or L forms follow the SMILES beside them. N(4-Br-benzyl)Gly = O=C(O)CNCc1ccc(Br)cc1; NBzl(4-I)Gly = O=C(O)CNCc1ccc(I)cc1; Nphe = O=C(O)CNCc1ccccc1; Nlys = NCCCCNCC(=O)O
What was measured:
S. aureus ATCC 25923 = assay type: cell-based, Staphylococcus aureus; details: for Minimal inhibitory concentration SA^a: ATCC 25923, 18 h
Summary of the method: (§1)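 Broth microdilution per CLSI in MHB II, final inoculum 5 × 10^5 CFU/mL, with twofold peptoid dilutions. Incubation was 18 h at 37 °C in ambient air. MIC was taken as the lowest concentration without visible growth, from two experiments on different days in technical triplicate.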

[1] = tested on: Methicillin-resistant S. aureus USA 300; assay type: cell-based, Staphylococcus aureus; details: USA 300, 18 h
Summary of the method: as §1

S. aureus ATCC 29213 = assay type: cell-based, Staphylococcus aureus; details: ATCC 29213, 18 h
Summary of the method: as §1

[2] = tested on: Methicillin-resistant S. epidermidis ATCC 51625; assay type: cell-based, Staphylococcus epidermidis; details: ATCC 51625, 18 h
Summary of the method: as §1

[3] = tested on: Methicillin-resistant S. epidermidis ET-024; assay type: cell-based, Staphylococcus epidermidis; details: for Minimal inhibitory concentration MRSE^d: Methicillin-resistant ET-024, 18 h
Summary of the method: as §1

[4] = tested on: selected bacterial strains (S. aureus, S. epidermidis, E. coli, P. aeruginosa); assay type: cell-based; details: for MICs, range across strains: range matches Gram-positive strains of Table 1
Procedure: All 36 peptoids were tested against seven bacterial strains: five Gram-positive (Staphylococcus aureus ATCC 25923 and ATCC 29213, methicillin-resistant Staphylococcus aureus USA 300, methicillin-resistant Staphylococcus epidermidis ET-024 and ATCC 51625) and two Gram-negative (Escherichia coli ATCC 25922, Pseudomonas aeruginosa PA01) (Table 1).
Bacterial growth inhibition was determined by using broth microdilution according to the Clinical Laboratory Standards Institute[43]. The antibacterial activity of peptoids was tested against S. aureus ATCC 25923, ATCC29213, and methicillin resistant S. aureus USA 300, methicillin resistant S. epidermidis ATCC 51625, a biofilm producing methicillin resistant S. epidermidis ET-024[44], P. aeruginosa Pa01 (H103), and E. coli ATCC 25922. Bacteria, grown on agar plates for 18 h at 37 °C, were diluted to ∼1 × 10^8 CFU/mL in Mueller‐Hinton Broth II (MHB II). Twofold serial dilutions of peptoids in MHB II were inoculated with bacteria to achieve a final concentration of 5 × 10^5 CFU/mL in polypropylene 96 U‐well microtiter plates (Corning 3,897; ThermoFisher Scientific, Roskilde), followed by incubation at 37 °C in ambient air for 18 h. The MIC values were determined as the lowest concentration showing no visible bacterial growth. Experiments were performed twice (in technical triplicates) on 2 different days.

E. coli ATCC 25922 = assay type: cell-based, Escherichia coli; details: ATCC 25922, 18 h
Summary of the method: as §1

[5] = tested on: P. aeruginosa PA01 (H103); assay type: cell-based, Pseudomonas aeruginosa; details: H103, 18 h
Summary of the method: as §1

[6] = Critical aggregation concentration from SAXS fit analysis; assay type: physicochemical
Procedure: SAXS experiments of the 10-mer peptoids were performed at the automated BM29 bioSAXS beamline at the European Synchrotron Radiation Facility (ESRF) in Grenoble, France[45]. The data was obtained using an energy of 12.5 keV and a detector distance of 2.87 m, covering a q range ( q=4πsin(θ/2)/λ ), where θ is the scattering angle and λ is the X-ray wavelength) of about 0.0047 to 0.5 Å^−1. The data set was calibrated to an absolute intensity scale using water as a primary standard. 40 µL samples were run through a capillary using the flow mode of the automated sample changer. SAXS data was collected in ten successive frames of 0.5 s each to monitor radiation damage and the data reduction was done using the standard tool at BM29[47].
The SAXS experiments on the fully iodinated 6-, 8-, and 12-mers to determine the CAC of the compounds were performed using a Bruker NANOSTAR equipped with a microfocus X-ray source (IμS Cu, Incoatec, Germany) and a VÅNTEC-2000 detector. Raw scattering data was calibrated to absolute intensity scale using water as a primary standard and radially averaged in order to obtain the 1D scattered intensity profile as a function of the scattering vector, with a wavelength of 1.54 Å.
The modelling fit analysis of the scattering data is explained in detail in the supplementary information.

SMILES | Minimal inhibitory concentration SA^a (S. aureus ATCC 25923) [µg/mL] | Minimal inhibitory concentration MRSA^c [1] [µg/mL] | Minimal inhibitory concentration SA^b (S. aureus ATCC 29213) [µg/mL] | Minimal inhibitory concentration MRSE^e [2] [µg/mL] | Minimal inhibitory concentration MRSE^d [3] [µg/mL] | antimicrobial potency against the selected bacterial strains, in words [4] | Minimal inhibitory concentration EC^f (E. coli ATCC 25922) [µg/mL] | Minimal inhibitory concentration PA^g [5] [µg/mL] | critical aggregation concentration (CAC) [6] [mg/mL] | fold increase of activity against S. aureus (S. aureus ATCC 25923; versus non-halogenated control of same length) [fold] | fold increase of activity against MRSE ([3]; versus non-halogenated control of same length, values match ET-024) [fold] | MICs, range across strains [4] [µg/mL]
NCCCCNCC(=O)N(CC(=O)N(CCCCN)CC(=O)N(CC(=O)N(CCCCN)CC(=O)N(CC(=O)N(CCCCN)CC(=O)N(CC(=O)N(CCCCN)CC(=O)N(CC(N)=O)Cc1ccccc1)Cc1ccccc1)Cc1ccccc1)Cc1ccccc1)Cc1ccccc1 [Compound 19] (H-[Nlys][Nphe][Nlys][Nphe][Nlys][Nphe][Nlys][Nphe][Nlys][Nphe]-NH2) | > 512 | > 512 | > 512 | 128 (≈ 91.8 µM) | 128 (≈ 91.8 µM) | inactive | 256 (≈ 184 µM) | 512 (≈ 367 µM) | > 5 |  |  | 
NCCCCNCC(=O)N(CC(=O)N(CCCCN)CC(=O)N(CC(=O)N(CCCCN)CC(=O)N(CC(=O)N(CCCCN)CC(=O)N(CC(=O)N(CCCCN)CC(=O)N(CC(N)=O)Cc1ccc(Br)cc1)Cc1ccc(Br)cc1)Cc1ccc(Br)cc1)Cc1ccc(Br)cc1)Cc1ccc(Br)cc1 [Compound 22] (H-[Nlys][N(4-Br-benzyl)Gly][Nlys][N(4-Br-benzyl)Gly][Nlys][N(4-Br-benzyl)Gly][Nlys][N(4-Br-benzyl)Gly][Nlys][N(4-Br-benzyl)Gly]-NH2) | 2 (≈ 1.12 µM) | 4 (≈ 2.24 µM) | 2 (≈ 1.12 µM) | 1 (≈ 0.559 µM) | 1 (≈ 0.559 µM) |  | 64 (≈ 35.8 µM) | > 512 | 2.3 | > 256 | 128 | 1 to 4
NCCCCNCC(=O)N(CC(=O)N(CCCCN)CC(=O)N(CC(=O)N(CCCCN)CC(=O)N(CC(=O)N(CCCCN)CC(=O)N(CC(=O)N(CCCCN)CC(=O)N(CC(N)=O)Cc1ccc(I)cc1)Cc1ccc(I)cc1)Cc1ccc(I)cc1)Cc1ccc(I)cc1)Cc1ccc(I)cc1 [Compound 23] (H-[Nlys][NBzl(4-I)Gly][Nlys][NBzl(4-I)Gly][Nlys][NBzl(4-I)Gly][Nlys][NBzl(4-I)Gly][Nlys][NBzl(4-I)Gly]-NH2) | 32 (≈ 15.8 µM) | 16 (≈ 7.91 µM) | 32 (≈ 15.8 µM) | 8 (≈ 3.95 µM) | 4 (≈ 1.98 µM) | the activity was lost | > 512 | > 512 | 0.4 |  |  | 
NCCCCNCC(=O)N(CC(=O)N(CCCCN)CC(=O)N(CC(=O)N(CCCCN)CC(=O)N(CC(=O)N(CCCCN)CC(=O)N(CC(=O)N(CCCCN)CC(=O)N(CC(N)=O)Cc1ccc(Br)cc1)Cc1ccccc1)Cc1ccc(Br)cc1)Cc1ccccc1)Cc1ccc(Br)cc1 [Compound 26] (H-[Nlys][N(4-Br-benzyl)Gly][Nlys][Nphe][Nlys][N(4-Br-benzyl)Gly][Nlys][Nphe][Nlys][N(4-Br-benzyl)Gly]-NH2) | 4 (≈ 2.45 µM) | 8 (≈ 4.91 µM) | 4 (≈ 2.45 µM) | 1 (≈ 0.613 µM) | 1 (≈ 0.613 µM) |  | 256 (≈ 157 µM) | 512 (≈ 314 µM) | > 5 |  |  | 1 to 8
NCCCCNCC(=O)N(CC(=O)N(CCCCN)CC(=O)N(CC(=O)N(CCCCN)CC(=O)N(CC(=O)N(CCCCN)CC(=O)N(CC(=O)N(CCCCN)CC(=O)N(CC(=O)N(CCCCN)CC(=O)N(CC(N)=O)Cc1ccccc1)Cc1ccccc1)Cc1ccccc1)Cc1ccccc1)Cc1ccccc1)Cc1ccccc1 [Compound 28] (H-[Nlys][Nphe][Nlys][Nphe][Nlys][Nphe][Nlys][Nphe][Nlys][Nphe][Nlys][Nphe]-NH2) | > 512 | 512 (≈ 307 µM) | 512 (≈ 307 µM) | 32 (≈ 19.2 µM) | 64 (≈ 38.3 µM) | inactive | 128 (≈ 76.7 µM) | 128 (≈ 76.7 µM) |  |  |  | 
NCCCCNCC(=O)N(CC(=O)N(CCCCN)CC(=O)N(CC(=O)N(CCCCN)CC(=O)N(CC(=O)N(CCCCN)CC(=O)N(CC(=O)N(CCCCN)CC(=O)N(CC(=O)N(CCCCN)CC(=O)N(CC(N)=O)Cc1ccc(I)cc1)Cc1ccc(I)cc1)Cc1ccc(I)cc1)Cc1ccc(I)cc1)Cc1ccc(I)cc1)Cc1ccc(I)cc1 [Compound 32] (H-[Nlys][NBzl(4-I)Gly][Nlys][NBzl(4-I)Gly][Nlys][NBzl(4-I)Gly][Nlys][NBzl(4-I)Gly][Nlys][NBzl(4-I)Gly][Nlys][NBzl(4-I)Gly]-NH2) | 64 (≈ 26.4 µM) | 32 (≈ 13.2 µM) | 128 (≈ 52.8 µM) | 16 (≈ 6.6 µM) | 32 (≈ 13.2 µM) | the activity was lost | > 512 | > 512 | 0.4 |  |  | 

— paper PMC7481290, “Halogenation as a tool to tune antimicrobial activity of peptoids” (Scientific Reports, 2020)
